Experiments:
[1] = test system: MCF7, hormone-independent human breast cancer cells; assay: Proliferation assay, MCF7; format: cell-based; details: MCF7, 96 h, 4 days incubation, crystal violet
Outline: (§1)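 Cells seeded ~5000/well, treated after 24 h with 0.01-30 μM compound (0.5% DMSO) for 4 days. Glutaraldehyde-fixed cells stained with crystal violet, absorbance at 595 nm; growth expressed as percent, normalized to zero-point plate (0%) and untreated cells (100%).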

[2] = test system: NCI-H460, human non-small-cell lung cancer cells; assay: Proliferation assay, H460; format: cell-based; details: NCI-H460, 96 h, 4 days incubation, crystal violet
Outline: as §1

[3] = test system: HCT 116, human colon cancer cells; assay: Proliferation assay, HCT116; format: cell-based; details: HCT-116, 96 h, 4 days incubation, crystal violet
Description: Cultivated human tumor cells (MCF7, hormone-independent human breast cancer cells, related to ATCC HTB22; NCI-H460, human non-small-cell lung cancer cells, ATCC HTB-177, HCT 116, human colon cancer cells, ATCC CCL-247; DU 145, hormone-independent human prostate cancer cells, ATCC HTB-81; MaTu-MDR, hormone-independent, multiple pharmaceutical agent-resistant human breast cancer cells, EPO-GmbH, Berlin) were flattened out at a density of about 5000 cells/measuring point, depending on the growth rate of the respective cells, in a 96-well multititer plate in 200 μl of the corresponding growth medium. After 24 hours, the cells of one plate (zero-point plate) were colored with crystal violet (see below), while the medium of the other plates was replaced by fresh culture medium (200 μl), to which the test substances were added in various concentrations (0 μm, as well as in the range of 0.01-30 μm; the final concentration of the solvent dimethyl sulfoxide was 0.5%). The cells were incubated for 4 days in the presence of test substances. The cell proliferation was determined by coloring the cells with crystal violet: the cells were fixed by adding 20 μl/measuring point of an 11% glutaric aldehyde solution for 15 minutes at room temperature. After three washing cycles of the fixed cells with water, the plates were dried at room temperature. The cells were colored by adding 100 μl/measuring point of a 0.1% crystal violet solution (the pH was set at 3 by adding acetic acid). After three washing cycles of the colored cells with water, the plates were dried at room temperature. The dye was dissolved by adding 100 μl/measuring point of a 10% acetic acid solution. The extinction was determined by photometry at a wavelength of 595 nm. The change of cell growth, in percent, was calculated by normalization of the measured values to the extinction values of the zero-point plate (=0%) and the extinction of the untreated (0 μm) cells (=100%).

[4] = test system: DU 145, hormone-independent human prostate cancer cells; assay: Proliferation assay, DU145; format: cell-based; details: DU-145, 96 h, 4 days incubation, crystal violet
Outline: as §1

[5] = test system: MaTu-ADR; assay: Proliferation assay, MaTu-ADR; format: cell-based; details: Homo sapiens, 96 h, MaTu-ADR cells, 4 days incubation, crystal violet
Outline: as §1

[6] = target: T1, CDK1/CycB (Homo sapiens, UniProt P06493); assay: CDK1/CycB Kinase Assay; format: biochemical; details: histone IIIS substrate, 33P-ATP, 15 minutes at 22° C.
T1 construct: GST; purchased ProQinase GmbH, Freiburg; host or cells: baculovirus-infected insect cells (Sf9)
T1 sequence (P06493 whole entry): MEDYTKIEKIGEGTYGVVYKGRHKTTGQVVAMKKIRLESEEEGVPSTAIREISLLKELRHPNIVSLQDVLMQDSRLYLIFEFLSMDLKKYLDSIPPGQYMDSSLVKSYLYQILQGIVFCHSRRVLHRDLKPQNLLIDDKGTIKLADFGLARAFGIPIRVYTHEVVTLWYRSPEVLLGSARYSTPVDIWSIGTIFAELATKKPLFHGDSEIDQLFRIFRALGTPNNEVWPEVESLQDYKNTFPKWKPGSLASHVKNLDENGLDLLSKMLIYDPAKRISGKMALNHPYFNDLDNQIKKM
T1 sequence (P14635 whole entry partner): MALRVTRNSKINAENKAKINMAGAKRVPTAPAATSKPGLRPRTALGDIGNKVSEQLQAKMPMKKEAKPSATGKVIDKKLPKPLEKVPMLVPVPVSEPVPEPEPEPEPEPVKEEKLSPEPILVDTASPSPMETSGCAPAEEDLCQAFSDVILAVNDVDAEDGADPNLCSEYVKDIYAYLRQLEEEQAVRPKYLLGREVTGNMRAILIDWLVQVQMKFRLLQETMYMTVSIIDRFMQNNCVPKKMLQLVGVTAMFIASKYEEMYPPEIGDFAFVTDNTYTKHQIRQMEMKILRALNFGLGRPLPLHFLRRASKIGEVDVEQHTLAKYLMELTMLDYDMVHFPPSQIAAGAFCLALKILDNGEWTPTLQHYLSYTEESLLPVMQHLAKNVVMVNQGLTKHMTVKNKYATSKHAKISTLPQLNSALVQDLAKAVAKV

[7] = target: Human Carboanhydrase-2 (Homo sapiens, UniProt P00918); assay: Carboanhydrase Assay; format: biochemical; details: 4-nitrophenyl acetate hydrolysis, 400 nm; read-out: Inhibition of Human Carboanhydrase-2 IC50
Procedure: 2 μl of the test compounds, dissolved in DMSO (100× the final concentration), in a concentration range of 0.03-10 μm (final), was pipetted as 4× determinations into the holes of a 96-hole microtiter plate. Holes that contained the solvent without test compounds were used as reference values (1. Holes without carboanhydrase for correction of the non-enzymatic hydrolysis of the substrate, and 2. Holes with carboanhydrase for determining the activity of the non-inhibited enzyme).
188 μl of assay buffer (10 mmol of Tris/HCl, pH 7.4, 80 mmol of NaCl), with or without 3 units/hole on carboanhydrase I or II, was pipetted into the holes of the microtiter plate.

[8] = target: T2, CDK2/CycE (Homo sapiens, UniProt P24941); assay: CDK2/CycE Kinase Assay; format: biochemical; details: histone IIIS substrate, 33P-ATP, 15 minutes at 22° C.
T2 construct: GST; purchased ProQinase GmbH, Freiburg; host or cells: baculovirus-infected insect cells (Sf9)
Outline: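 Recombinant GST-tagged CDK2/CycE from Sf9 cells (50 ng/point) was incubated with compound (0.01-100 μM) for 15 min at 22° C, pH 8.0, with 0.5 μM ATP plus ^33P-γ-ATP and histone IIIS as substrate, in 12.5% DMSO. Incorporated ^33P was counted after filter binding and washing.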

[9] = target: T3, VEGF receptor tyrosine kinase-2 (Homo sapiens, UniProt P35968); assay: VEGF Receptor-2 Kinase Assay; format: biochemical; details: poly-(Glu4Tyr) substrate, 33P-ATP, 10 minutes at 22° C.; read-out: VEGF-R2 IC50
T3 construct: GST; made in house; host or cells: baculovirus-infected insect cells (Sf9)
T3 sequence (P35968 20-1356): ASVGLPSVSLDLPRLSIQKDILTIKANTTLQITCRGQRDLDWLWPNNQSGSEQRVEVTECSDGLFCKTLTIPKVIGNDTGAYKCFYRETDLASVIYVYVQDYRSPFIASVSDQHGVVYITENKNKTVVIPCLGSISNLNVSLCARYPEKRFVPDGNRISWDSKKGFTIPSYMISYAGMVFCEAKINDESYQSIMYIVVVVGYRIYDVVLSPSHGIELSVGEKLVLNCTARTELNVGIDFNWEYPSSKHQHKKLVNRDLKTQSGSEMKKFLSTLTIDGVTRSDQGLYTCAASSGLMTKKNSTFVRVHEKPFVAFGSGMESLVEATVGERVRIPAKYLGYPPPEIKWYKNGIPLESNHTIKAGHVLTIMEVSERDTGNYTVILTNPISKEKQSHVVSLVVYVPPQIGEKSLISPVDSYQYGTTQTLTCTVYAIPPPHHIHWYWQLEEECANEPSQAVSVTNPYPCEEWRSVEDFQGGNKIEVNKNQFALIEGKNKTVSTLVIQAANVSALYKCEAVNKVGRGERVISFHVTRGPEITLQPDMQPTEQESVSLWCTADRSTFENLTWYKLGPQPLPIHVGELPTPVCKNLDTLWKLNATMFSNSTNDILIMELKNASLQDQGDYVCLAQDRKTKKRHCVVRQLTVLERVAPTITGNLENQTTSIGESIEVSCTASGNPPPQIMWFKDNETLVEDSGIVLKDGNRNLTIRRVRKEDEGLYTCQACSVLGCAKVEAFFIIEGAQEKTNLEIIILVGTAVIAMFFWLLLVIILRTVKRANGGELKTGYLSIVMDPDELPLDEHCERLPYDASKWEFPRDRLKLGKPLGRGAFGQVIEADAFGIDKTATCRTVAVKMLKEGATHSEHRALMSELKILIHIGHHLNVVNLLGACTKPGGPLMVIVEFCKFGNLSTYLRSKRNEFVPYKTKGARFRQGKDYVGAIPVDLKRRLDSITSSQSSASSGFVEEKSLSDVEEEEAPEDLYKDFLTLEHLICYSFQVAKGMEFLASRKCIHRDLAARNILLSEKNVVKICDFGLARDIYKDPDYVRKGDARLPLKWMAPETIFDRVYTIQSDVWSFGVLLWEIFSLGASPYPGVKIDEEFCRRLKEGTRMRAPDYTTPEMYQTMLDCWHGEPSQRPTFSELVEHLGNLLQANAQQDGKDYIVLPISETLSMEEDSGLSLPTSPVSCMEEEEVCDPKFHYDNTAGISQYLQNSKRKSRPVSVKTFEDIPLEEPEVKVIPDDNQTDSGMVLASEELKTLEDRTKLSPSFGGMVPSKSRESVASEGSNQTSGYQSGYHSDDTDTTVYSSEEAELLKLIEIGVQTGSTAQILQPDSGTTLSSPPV

Row | IC50 [1] [nM] | IC50 [2] [nM] | IC50 [3] [nM] | IC50 [4] [nM] | IC50 [6] [nM] | IC50 [7] [nM] | IC50 [8] [nM] | IC50 [9] [nM] | Structure (SMILES) | IC50 [5] [nM]
1 | 1500 | 300 | 300 | 1700 | 110 | > 10000 | – | – | CC(C)Nc1nc(Nc2ccc(S(C)(=N)=O)cc2)ncc1Br (racemic) [Example 2.0, (RS)-S-(4-{[5-bromo-4-(isopropylamino)pyrimidin-2-yl]amino}phenyl)-S-methyl sulfoximide] | 400
2 | 300 | 1200 | 400 | 1500 | 79 | > 10000 | < 10 | 40 | C[C@H](CO)Nc1nc(Nc2ccc(S(C)(=N)=O)cc2)ncc1Br (mixture of isomers) [Example 1.0, (RS)-S-[4-({5-Bromo-4-[(R)-(2-hydroxy-1-methylethyl)amino]pyridimin-2-yl}amino)phenyl]-S-methyl sulfoximide] | 1600
